# Source: patent publication US9089578B2, “Method of treating neuroendocrine tumors” (Niiki Pharma Acquisition Corp. 2, priority 2010, dated 2015)
# Legend:
# [1] = system: Merkel cell carcinoma cell line MKL-1; test: ATCC MTT Cell Proliferation Assay, MKL-1; assay type: cell-based, human; details: MKL-1 cells, 72 hours post-treatment, read-out: IC50 (concentration that inhibits cell growth by 50%)
# Procedure: (§1) To test the activities of sodium trans-[tetrachlorobis(1H-indazole)ruthenate(III)], ATCC's MTT Cell Proliferation Assay® was performed using human thyroid carcinoma cell line MB1 and Merkel cell carcinoma cell line MKL-1, both being neuroendocrine tumor (NET) cell lines. Stock cultures were allowed to grow to 70-80% confluence for this study. The anti-proliferative activity of sodium trans-[tetrachlorobis(1H-indazole)ruthenate(III)], against the indicated cell line was evaluated in vitro using the ATCC's MTT Cell Proliferation Assay (Catalog No. 30-1010K). […] The plates were left overnight at room temperature in the dark and was read on a plate reader using SoftMax® Pro (version 5.2, Molecular Devices).
# (§2) The absorbance data was analyzed as follows: Absorbance values were converted to Percent of Control and plotted against test agent concentrations for IC50 calculations using SoftMax® Pro (version 5.2, Molecular Devices). […] Percent of Control values were calculated by dividing the absorbance values for each test well by the No Drug Control average (column 11 values; cells+vehicle control) and multiplying by 100. Plots of Compound Concentration versus Percent of Control were analyzed using the 4-parameter equation to obtain IC50 values and other parameters that describe the sigmoidal dose response curve. […]
# [2] = system: Stage IV gastrinoma of the stomach; test: Human clinical trial, gastrinoma patient, tumor response; assay type: in vivo; details: 420 mg/m^2 i.v. days 1, 8, 15 of 28-day cycle, 6 cycles
# From the text: (§3) In the same human clinical trial described above, a person with Stage IV gastrinoma of the stomach, (a neuroectodermal tumor or NET) diagnosed in December 2006 was enrolled. They had multiple attempts to achieve disease control with hepatic artery embolization in […], in January 2007, and in September 2007. Localized radiotherapy with Yttrium-90 instillation to the right lobe of the liver in March 2009 and the left lobe in May 2009 was attempted. Yet the tumor was not controlled.
# [3] = system: human thyroid carcinoma cell line MB1; test: ATCC MTT Cell Proliferation Assay, MB1; assay type: cell-based; details: MB1 cells, 72 hours post-treatment, read-out: IC50 (concentration that inhibits cell growth by 50%)
# Procedure: as §1, §2
# [4] = system: serum gastrin; test: Serum gastrin level by chemiluminescence method in gastrinoma patient; assay type: in vivo, human; details: reduced from 8291
# From the text: as §3
# Serum gastrin levels were measured using chemiluminescence method during the treatment period.
# [5] = system: Stage IV Carcinoid tumor of the small bowel; test: Human clinical trial, carcinoid patient, tumor lesions by CT scan; assay type: in vivo; details: for Size of tumor lesion by CT scan, Left periaortic LN: baseline 2.5; for Size of tumor lesion by CT scan, Portacaval LN: baseline 3.0; for Size of tumor lesion by CT scan, Stomach/mesenteric LN: baseline 3.3; for Size of tumor lesion by CT scan, Esophageal LN: baseline 3.8
# From the text: (§4) In a human clinical trial conducted in the US, a person with Stage IV Carcinoid tumor of the small bowel (a neuroectodermal tumor or NET) was selected to undergo treatment of sodium trans-[tetrachlorobis(1H-indazole)ruthenate(III)]. They previously had 2 surgeries: an exploratory lap (diagnosis of neuroendocrine tumor) in June 2008, and a partial surgical resection of mass in October 2008. The second surgery was followed by chemoembolization of residual tumor masses for palliative treatment in October 2008 and in November 2008. Systemic chemotherapy with capecitibine was administered between July and August 2009. In August 2009, therapy was changed to octreotide (Sandostatin LAR), but this was discontinued in November 2009.
# As the tumors were progressing, the patient started therapy on May 7, 2010 with intravenous injection of sodium trans-[tetrachlorobis(1H-indazole)ruthenate(III)] at 320 mg/m^2 based on body surface area (for a total dose of 630 mg per administration) once per week, on days 1, 8, and 15 of each 28-day cycle. At that time the patient had four metastatic sites originating from the primary tumor small intestine carcinoid. The four metastatic sites were in portacaval lymph node, left periaortic lymph node, stomach/mesenteric lymph node, and esophageal lymph node. CT scan of the tumors was done at the start of the treatment (baseline), and thereafter every two months.
# [6] = system: Stage IV Carcinoid tumor of the small bowel; test: Prior chemo regimens of the carcinoid patient (history); assay type: in vivo, human; details: December 2009 to March 2010
# From the text: as §4
# [7] = End of 2nd Cycle (Jun. 24, 2010), 320 mg/m^2 i.v.
# [8] = End of 4th Cycle (Aug. 19, 2010), 320 mg/m^2 i.v.
# [9] = carcinoid patient, 320 mg/m^2 i.v. once per week
structure (smiles),measurement,setting,value
[Cl][Ru-]([Cl])([Cl])[Cl].[Na+].c1ccc2[nH]ncc2c1.c1ccc2[nH]ncc2c1 [sodium trans-[tetrachlorobis(1H-indazole)ruthenate(III)]],IC50,[1],40.4 µM
same,best response,[2],stable disease
same,IC50,[3],73.7 µM
same,serum gastrin level reduced during the course of therapy,[4],6120
same,"Size of tumor lesion by CT scan, Left periaortic LN",[5]; [7],2.5
same,"Size of tumor lesion by CT scan, Portacaval LN","[5]; End of 2nd Cycle (Jun. 24, 2010), 320 mg/m^2 i.v. days 1, 8, 15 of 28-day cycle",2.9
same,"Size of tumor lesion by CT scan, Stomach/mesenteric LN",[5]; [7],3.1
same,"Size of tumor lesion by CT scan, Esophageal LN",[5]; [7],3.0
same,"Size of tumor lesion by CT scan, Left periaortic LN",[5]; [8],2.5
same,"Size of tumor lesion by CT scan, Portacaval LN",[5]; [8],2.9
same,"Size of tumor lesion by CT scan, Stomach/mesenteric LN",[5]; [8],3.1
same,"Size of tumor lesion by CT scan, Esophageal LN",[5]; [8],2.0
same,disease status on treatment,"[5]; after 14 cycles, as of July 2011",remains under control
same,effect on the remaining three lesions,[5]; [9],stopped tumor growth
same,tumor regression in one lesion,[5]; [9],~50%
same,serious adverse events,"[5]; carcinoid patient, 320 mg/m^2 i.v., 14 cycles",No serious adverse events have been observed
C[C@@H](Oc1cc(-c2cnn(C3CCNCC3)c2)cnc1N)c1c(Cl)ccc(F)c1Cl [crizotinib],outcome of prior therapy,[6],disease progression
